Experiment [1] concerns HCT116. Nature of the experiment: AC50 cell viability (CellTiter-Glo); higher = less potent. The following applies: 48 h. In general terms: ATP-based viability assays read luminescence as a measure of living cells.
Experiment [2] deals with HCT116. The experiment in a line: efficacy (fitted maximal change in viability relative to DMSO control); higher = less cytotoxic (negative = loss of viability). The settings on record: 48 h.

Where a name gives a salt, the structure may show the parent alone.

In the supplement of paper PMC10290057 one finds AC50 cell viability and efficacy data, which are given here for 47 compounds.
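Wherever AC50 cell viability (CellTiter-Glo) is given: HCT116 colorectal carcinoma cells screened at five concentrations per compound, luminescent viability scaled between DMSO wells and empty wells on each plate, curves fitted per compound.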
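Wherever efficacy (fitted maximal change in viability relative to DMSO control) is given: Luminescence-based viability readout, five doses per compound, normalized against on-plate DMSO and empty-well controls, followed by dose-response curve fitting for every drug.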

The compound `O=C(/C=C\n1cnc(-c2cc(C(F)(F)F)cc(C(F)(F)F)c2)n1)NNc1ccccn1` [Verdinexor] came in with an AC50 cell viability in experiment [1] of 0.59 µM. Moreover, the efficacy in experiment [2] was -83.9%.

For the compound `COC1=CC(=CC=C1)C2=CC=C(NC(=O)/C3=C(/CCC3)C(O)=O)C(=C2)F` [Vidofludimus], the AC50 cell viability in experiment [1] is 5.25 µM. Besides, the efficacy in experiment [2] is -50.2%.

Turning to `CC[C@]1(O)C[C@H]2CN(CCC3=C([NH]C4=C3C=CC=C4)[C@@](C2)(C(=O)OC)C5=CC6=C(C=C5OC)N(C=O)[C@H]7[C@](O)([C@H](OC(C)=O)[C@]8(CC)\C=C/CN9CC[C@]67[C@H]89)C(=O)OC)C1` [Vincristine sulfate], the AC50 cell viability in experiment [1] turned out to be 0.372 µM. The efficacy in experiment [2] is -60.7%.

In experiment [1], `CC[C@]12\C=C/CN3CC[C@]4([C@@H](N(C)C5=C4C=C(C(=C5)OC)[C@]6(CC7C[C@H](CN(C7)CC8=C6[NH]C9=C8C=CC=C9)C(C)(F)F)C(=O)OC)[C@](O)([C@@H]1OC(C)=O)C(=O)OC)[C@H]23` (some centres undefined) [Vinflunine (Tartrate)] returned an AC50 cell viability of 0.209 µM. In experiment [2], the efficacy is -67.8%.

The compound `CC[C@]12\C=C/CN3CC[C@]4([C@@H](N(C)C5=CC(=C(C=C45)[C@]6(C[C@H]7C[C@H](CN(C7)CC8=C6[NH]C9=C8C=CC=C9)C(C)(F)F)C(=O)OC)OC)[C@](O)([C@@H]1OC(C)=O)C(=O)OC)[C@H]23` [Vinflunine] gave an AC50 cell viability in experiment [1] of 0.0986 µM. For the same compound, in experiment [2], the efficacy was -64.1%.

The compound `CCC1=C[C@@H]2CN(C1)Cc1c([nH]c3ccccc13)[C@@](C(=O)OC)(c1cc3c(cc1OC)N(C)[C@H]1[C@@](O)(C(=O)OC)[C@H](OC(C)=O)[C@]4(CC)C=CCN5CC[C@]31[C@@H]54)C2` [Vinorelbine (ditartrate)] yielded an AC50 cell viability in experiment [1] of 0.129 µM. In addition, the efficacy in experiment [2] was -60.3%.

In experiment [1], `CNC(=O)c1cccc(-c2ccc3c(N4CCOC[C@@H]4C)nc(N4CCOC[C@@H]4C)nc3n2)c1` [Vistusertib] showed an AC50 cell viability of 0.417 µM. The efficacy in experiment [2] was -31.3%.

In turn, `CC[C@@H]1C(=O)N(C)c2cnc(Nc3ccc(C(=O)NC4CCC(N5CCN(CC6CC6)CC5)CC4)cc3OC)nc2N1C(C)C` (some centres undefined) [Volasertib] had an AC50 cell viability in experiment [1] of 0.0661 µM. For the same compound, in experiment [2], the efficacy is -89.8%.

The compound `CN1CC[C@H]([C@@H]1CO)C2=C3OC(=C/C(=O)C3=C(O)C=C2O)\C4=C(Cl)C=C(C=C4)C(F)(F)F` [Voruciclib] registered an AC50 cell viability in experiment [1] of 7.42 µM. The efficacy in experiment [2] is -83.8%.

As for `CN[C@H]1CN(C[C@@H]1OC)C2=NC3=C(C=C2)C(=O)C(=C\N3C4=NC=CS4)/C(O)=O` [Vosaroxin], the AC50 cell viability in experiment [1] was 1.91 µM. In experiment [2], the efficacy was -59.8%.

Regarding `CCN1C(=O)\C(=C/C2=C(C)N=C(N)N=C12)C3=CC=N[NH]3` [Voxtalisib], the AC50 cell viability in experiment [1] stood at 5.25 µM. Moreover, the efficacy in experiment [2] is -60.4%.

As for `c1cncc(CN2CCC(n3ncc4c(N5CCOCC5)nc(-c5ccc6[nH]ccc6c5)nc43)CC2)c1` [WAY-600], the AC50 cell viability in experiment [1] worked out at 5.9 µM. Further, in experiment [2], the efficacy was -78.7%.

With `Cc1ccc(-c2nn(C(C)(C)CNC(=O)c3ccncc3)c3ncnc(N)c23)cc1` [WEHI-345], the AC50 cell viability in experiment [1] came out at 6.61 µM. Also, the efficacy in experiment [2] was -53%.

Regarding `COc1cc2ncnc(Nc3ccc(O)c(Br)c3)c2cc1OC` [WHI-P154], the AC50 cell viability in experiment [1] turned out to be 14.8 µM. Further, the efficacy in experiment [2] is -72.5%.

The compound `CC(C)(C)NC(=O)c1cncn1C1CCN(c2ccc(-c3nnc(C(F)(F)F)o3)cn2)CC1` [WNK-463] gave an AC50 cell viability in experiment [1] of 3.72 µM. In addition, the efficacy in experiment [2] was -49.1%.

`CN1CCN(Cc2ccc(NC(=O)Nc3ccc(Oc4cc(NC(=O)C5CC5)ncn4)cc3)cc2C(F)(F)F)CC1` [WS-3] came in with an AC50 cell viability in experiment [1] of 0.0934 µM. Besides, the efficacy in experiment [2] is -73.9%.

As to `O=C(CCCCCCC(=O)N/N=C/c1ccc(N(c2ccccc2)c2ccccc2)cc1)NO` [WT-161], in experiment [1], the AC50 cell viability stood at 2.09 µM. Further, in experiment [2], the efficacy was -86.8%.

In experiment [1], `COC(=O)Nc1ccc(-c2nc(N3CCOCC3)c3cnn(C4CCN(C(=O)OC)CC4)c3n2)cc1` [WYE-354] returned an AC50 cell viability of 1.32 µM. For the same compound, the efficacy in experiment [2] is -56.3%.

In experiment [1], `COC(=O)Nc1ccc(-c2nc(N3CCOCC3)c3cnn(C4CCN(Cc5cccnc5)CC4)c3n2)cc1` [WYE-687] returned an AC50 cell viability of 13.2 µM. Besides, in experiment [2], the efficacy is -135%.

Regarding `C=CC(=O)Nc1cccc(Oc2nc(Nc3ccc(N4CCN(C)CC4)cc3)ncc2Cl)c1` [WZ-3146], the AC50 cell viability in experiment [1] is 4.17 µM. The efficacy in experiment [2] was -101%.

In experiment [1], `C=CC(=O)Nc1cccc(Oc2nc(Nc3ccc(N4CCN(C)CC4)cc3OC)ncc2Cl)c1` [WZ-4002] gave an AC50 cell viability of 11.8 µM. Moreover, the efficacy in experiment [2] is -96.5%.

In experiment [1], `CCC(=O)Nc1cccc(Oc2nc(Nc3ccc(N4CCN(C)CC4)cc3OC)ncc2Cl)c1` [WZ-4003] yielded an AC50 cell viability of 6.61 µM. In addition, the efficacy in experiment [2] was -65.7%.

In turn, `C=CC(=O)Nc1cccc(Sc2nc(Nc3ccc(N4CCN(C)CC4)cc3)ncc2Cl)c1` [WZ-8040] displayed an AC50 cell viability in experiment [1] of 7.42 µM. The efficacy in experiment [2] is -108%.

Regarding `C[C@H]([C@H]1C\C(=C(CO)/C(=O)O1)C)[C@H]2CC[C@H]3[C@@H]4C[C@H]5O[C@]56[C@@H](O)\C=C/C(=O)[C@]6(C)[C@H]4CC[C@]23C` [Withaferin A], the AC50 cell viability in experiment [1] came out at 1.66 µM. The efficacy in experiment [2] was -102%.

In experiment [1], `CCN1CCC(n2cc(CNc3cc(Cl)c4ncc(C#N)c(Nc5ccc(F)c(Cl)c5)c4c3)nn2)CC1` [Wyeth Cot Inhibitor 2] gave an AC50 cell viability of 20.9 µM. For the same compound, the efficacy in experiment [2] was -98.5%.

Consider `COc1cc2c(Nc3ccc(Cl)c(Cl)c3F)ncnc2cc1OC[C@@H]1C[C@@H]2CN(C)C[C@@H]2C1` [XL647], for which the AC50 cell viability in experiment [1] came out at 11.8 µM. Besides, in experiment [2], the efficacy was -113%.

For `ClC1=CC=C2OC3=C(\N=C(NC3=O)\[C@@H]4CCCN4)C2=C1` [XL 413 hydrochloride], the AC50 cell viability in experiment [1] worked out at 14.8 µM. Also, the efficacy in experiment [2] was -47.6%.

In turn, `CC(C)c1cc(CNc2nc(Nc3cc(C4CC4)[nH]n3)cc(N3CCN(C)CC3)n2)on1` [XL-228] came in with an AC50 cell viability in experiment [1] of 0.295 µM. For the same compound, the efficacy in experiment [2] is -64%.

As for `Cc1c(C(=O)N2CCOc3ccc(-c4ccc(N)nc4)cc3C2)ccc([S+](C)(=O)[O-])c1F` [XL-388], the AC50 cell viability in experiment [1] amounted to 10.5 µM. In addition, the efficacy in experiment [2] is -65.5%.

The compound `COCCOC(=O)N1CCN([S+](=O)([O-])c2cc(F)c(Oc3ccc(Cl)cc3)c(F)c2)C(C(=O)NO)C1` (centres undefined) [XL-784] yielded an AC50 cell viability in experiment [1] of 10.5 µM. Further, in experiment [2], the efficacy was -92.6%.

`CC[C@@H](C)Nc1cc(C(=O)NC2CC3CCC(C2)N3c2ccc(C(=O)C3CC3)cn2)c(C)cc1C(N)=O` (some centres undefined) [XL-888] came in with an AC50 cell viability in experiment [1] of 0.118 µM. Also, the efficacy in experiment [2] is -56.5%.

As to `CC[C@@H](C)Nc1cc(C(=O)NC2CC3CC[C@@H](C2)N3c2ccc(C(=O)C3CC3)cn2)c(C)cc1C(N)=O` (some centres undefined) [XL-888], in experiment [1], the AC50 cell viability was 0.0833 µM. In experiment [2], the efficacy is -59.7%.

On to `COc1cc(N2CCN(C)CC2)ccc1Nc1ncc2c(n1)N(C)c1ccccc1C(=O)N2` [XMD8-87], for which, in experiment [1], the AC50 cell viability was 18.6 µM. Moreover, the efficacy in experiment [2] is -92.7%.

Take `CCOc1cc(N2CCC(O)CC2)ccc1Nc1ncc2c(n1)N(C)c1ccccc1C(=O)N2C` [XMD8-92]: the AC50 cell viability in experiment [1] amounted to 8.33 µM. The efficacy in experiment [2] was -80.7%.

Compound `COc1cc(N2CCN(C)CC2)ccc1Nc1ncc2c(n1)N(C)c1ccccc1C(=O)N2C` [XMD17-109 (ERK5-IN-1)] returned an AC50 cell viability in experiment [1] of 9.34 µM. For the same compound, the efficacy in experiment [2] is -89.1%.

`CCOc1cc(C(=O)N2CCC(N3CCN(C)CC3)CC2)ccc1Nc1ncc2c(n1)N(C1CCCC1)c1ccccc1C(=O)N2C` [XMD17-109]: the AC50 cell viability in experiment [1] was 7.42 µM. For the same compound, the efficacy in experiment [2] is -104%.

For `CN1C(=O)c2sccc2N(C)c2nc(Nc3ccc([S+](N)(=O)[O-])cc3)ncc21` [XMU-MP-1], the AC50 cell viability in experiment [1] was determined as 3.32 µM. Besides, in experiment [2], the efficacy is -99.2%.

In turn, `Cc1cc(C(=O)N2CCN(c3cccc(Cl)c3)CC2)n(-c2ccccc2)n1` [XRP-44X] yielded an AC50 cell viability in experiment [1] of 2.95 µM. In addition, in experiment [2], the efficacy is -62.8%.

Turning to `C=C1C(=O)O[C@H]2C[C@H](C)C(/C=C/C(C)=O)=CC[C@H]12` [Xanthatin], the AC50 cell viability in experiment [1] stood at 2.63 µM. In experiment [2], the efficacy was -76%.

For the compound `COc1ccc(C(=O)CC2(O)C(=O)Nc3c(Cl)ccc(Cl)c32)cc1` (centres undefined) [YK-4-279], the AC50 cell viability in experiment [1] turned out to be 1.18 µM. Moreover, in experiment [2], the efficacy is -57.1%.

Consider `COc1ccc(N2C(=O)N(c3c(C)cccc3Cl)Cc3cnc(Nc4ccc(C5CCN(C)CC5)cc4OC)nc32)nc1` [YKL-05-099], for which, in experiment [1], the AC50 cell viability was 10.5 µM. In addition, the efficacy in experiment [2] is -99.4%.

With `CN(C)c1ccc2cc(C(=O)N[C@@H](CCCNC(=N)CCl)C(=O)NCc3ccccc3)ccc2c1` [YW3-56], in experiment [1], the AC50 cell viability came out at 20.9 µM. Besides, the efficacy in experiment [2] was -56.2%.

In turn, `FC(F)c1nc2ccccc2n1-c1nc(N2CCOCC2)nc(N2CCOCC2)n1` [ZSTK-474] registered an AC50 cell viability in experiment [1] of 0.742 µM. In addition, the efficacy in experiment [2] was -58.2%.

In experiment [1], `CC1(CN2CCC(n3c(=O)[nH]c4ccccc43)CC2)OCc2ccccc2-n2cccc21` (centres undefined) [Zaldaride maleate] returned an AC50 cell viability of 20.9 µM. Besides, the efficacy in experiment [2] was -74.1%.

Turning to `Cl.Cl.Cl.O[C@@H](COc1cccc2ncccc12)CN1CCN([C@@H]2c3ccccc3[C@@H]3[C@H](c4ccccc42)C3(F)F)CC1` [Zosuquidar trihydrochloride], the AC50 cell viability in experiment [1] turned out to be 16.6 µM. Further, in experiment [2], the efficacy was -97%.

`CC1(C)CC\C2=C(/O1)C3=C(C=CC=C3)C(=O)C2=O` [beta-Lapachone] came in with an AC50 cell viability in experiment [1] of 14.8 µM. In addition, in experiment [2], the efficacy is -103%.

As for `CC1CCN(c2cc(N3CCN(C)CC3)ccc2NC(=O)c2cc(C#N)c[nH]2)CC1` [c-FMS Inhibitor], the AC50 cell viability in experiment [1] was 7.42 µM. In addition, the efficacy in experiment [2] is -34%.
